Drawing on ChEMBL document CHEMBL1152652, “Bioorganic synthesis of end-capped anti-HIV peptides by simultaneous cyanocysteine-mediated cleavages of recombinant proteins” (Bioorg Med Chem, 2009), this text covers EC50 and Activity for four compounds.

Where a SMILES comes first, the peptide text is derived from it. The star is where a group is joined. NH(2-oxoazepan-3S-yl) = O=C1NCCCC[C@@H]1N*; Aspartimide = O=C1C[C@H](N*)C(=O)N1; X1 = N=C1N[C@H](C(=O)*)CS1

For series [1], the system named is Human immunodeficiency virus 1. The experiment in a line: Antiviral activity against HIV1 NL4-3 infected in human HeLa cells assessed as inhibition of replication after 48 hrs by MAGI assay. Type of series: functional, organism-based. To be noted: Human immunodeficiency virus 1, NL4-3, HeLa.
The next series concerns HeLa. Briefly: Cytotoxicity against human HeLa cells after 48 hrs up to 10 uM by MAGI assay. Type of series: cell-based.
A further series deals with Serum. The experiment in a line: Metabolic stability in 50% mouse serum assessed as degradation after 24 hrs. Type of series: ADME, cell-free.

The EC50 is the concentration giving half of the maximal effect. Take H-WMEWDRKIEEYTKKIEELIKKSQEQQEKNEKELK-OH: the EC50 in series [1] came out at 0.68 nM.

With `CC[C@H](C)[C@H](NC(=O)[C@H](CC(C)C)NC(=O)[C@H](CCC(=O)O)NC(=O)[C@H](CCC(=O)O)NC(=O)[C@@H](NC(=O)[C@H](CCCCN)NC(=O)[C@H](CCCCN)NC(=O)[C@@H](NC(=O)[C@H](Cc1ccc(O)cc1)NC(=O)[C@H](CCC(=O)O)NC(=O)[C@H](CCC(=O)O)NC(=O)[C@@H](NC(=O)[C@H](CCCCN)NC(=O)[C@H](CCCNC(=N)N)NC(=O)[C@H](CC(=O)O)NC(=O)[C@H](Cc1c[nH]c2ccccc12)NC(=O)[C@H](CCC(=O)O)NC(=O)[C@H](CCSC)NC(=O)[C@H](Cc1c[nH]c2ccccc12)NC(=O)[C@@H]1CSC(=N)N1)[C@@H](C)CC)[C@@H](C)O)[C@@H](C)CC)C(=O)N[C@@H](CCCCN)C(=O)N[C@@H](CCCCN)C(=O)N[C@@H](CO)C(=O)N[C@@H](CCC(N)=O)C(=O)N[C@@H](CCC(=O)O)C(=O)N[C@@H](CCC(N)=O)C(=O)N[C@@H](CCC(N)=O)C(=O)N[C@@H](CCC(=O)O)C(=O)N[C@@H](CCCCN)C(=O)N[C@@H](CC(N)=O)C(=O)N[C@@H](CCC(=O)O)C(=O)N[C@@H](CCCCN)C(=O)N[C@@H](CCC(=O)O)C(=O)N[C@@H](CC(C)C)C(=O)N[C@@H](CCCCN)C(=O)N[C@H]1CCCCNC1=O` (X1-WMEWDRKIEEYTKKIEELIKKSQEQQEKNEKELK-{NH(2-oxoazepan-3S-yl)}), the Activity entry in the series with HeLa is recorded as “Non-toxic”; in the series with Serum, “Stable”. Besides, the EC50 in series [1] was found to be 0.58 nM.

With `CC[C@H](C)[C@H](NC(=O)[C@H](CC(C)C)NC(=O)[C@H](CCC(=O)O)NC(=O)[C@H](CCC(=O)O)NC(=O)[C@@H](NC(=O)[C@H](CCCCN)NC(=O)[C@H](CCCCN)NC(=O)[C@@H](NC(=O)[C@H](Cc1ccc(O)cc1)NC(=O)[C@H](CCC(=O)O)NC(=O)[C@H](CCC(=O)O)NC(=O)[C@@H](NC(=O)[C@H](CCCCN)NC(=O)[C@H](CCCNC(=N)N)NC(=O)[C@H](CC(=O)O)NC(=O)[C@H](Cc1c[nH]c2ccccc12)NC(=O)[C@H](CCC(=O)O)NC(=O)[C@H](CCSC)NC(=O)[C@H](Cc1c[nH]c2ccccc12)NC(=O)[C@@H]1CSC(=N)N1)[C@@H](C)CC)[C@@H](C)O)[C@@H](C)CC)C(=O)N[C@@H](CCCCN)C(=O)N[C@@H](CCCCN)C(=O)N[C@@H](CO)C(=O)N[C@@H](CCC(N)=O)C(=O)N[C@@H](CCC(=O)O)C(=O)N[C@@H](CCC(N)=O)C(=O)N[C@@H](CCC(N)=O)C(=O)N[C@@H](CCC(=O)O)C(=O)N[C@@H](CCCCN)C(=O)N[C@@H](CC(N)=O)C(=O)N[C@@H](CCC(=O)O)C(=O)N[C@@H](CCCCN)C(=O)N[C@@H](CCC(=O)O)C(=O)N[C@@H](CC(C)C)C(=O)N[C@@H](CCCCN)C(=O)N[C@H]1CC(=O)NC1=O` (X1-WMEWDRKIEEYTKKIEELIKKSQEQQEKNEKELK-Aspartimide), the Activity result is recorded as “Non-toxic” with HeLa and “Unstable” in the series with Serum. In addition, the EC50 in series [1] worked out at 0.48 nM.

In the case of “Ac-WMEWDRKIEEYTKKIEELIKKSQEQQEKNEKELK-NH2”, the EC50 in series [1] worked out at 0.6 nM.
